# Tests used:
# [1] = Metabolite in liver microsomes and hepatocytes; assay type: in vitro ADME; settings: male human, monkey, dog, rat, and mouse liver microsomes and hepatocytes
# [2] = Metabolite in female mouse liver microsomes; assay type: in vitro ADME
# [3] = Glass transition and recrystallization temperature of amorphous solids; assay type: physicochemical
# Description: Thus, while crystals of Compound A are quite stable, there is a significant barrier to transforming to a crystalline state from an amorphous form. Indeed, a ramped temperature increase of a partially-crystalline sample does eventually lead to a recrystallization event, but not until a temperature of 200-220° C. is achieved. […] As discussed below, this robust resistance to crystallization is preserved even in the presence of water.
# The amorphous form of pure Compound A is robust with a high Tg and even higher recrystallization temperature. The glass transition temperature does decrease under the plasticizing conditions of high humidity. However, the value is still well above the commonly applied 40-50° C. difference between Tg and any temperature the clinical presentation will encounter.
# [4] = 90-minute non-sink dissolution, pH 2 HCl shifted to pH 6.5 SIF; assay type: physicochemical; settings: 1 mg/mL in pH 2 HCl, shift to pH 6.5 SIF at 30 minutes
# Description: FIG. 11 is a series of line graphs showing the dissolution of crystalline vs. amorphous Compound A API. API (1 mg/mL) is present in gastric conditions (pH=2), which is 2× diluted with FaSSIF at 30 minutes to increase the pH to 6.5. (API=active pharmaceutical ingredient; FaSSIF=fasted state simulated intestinal fluid.)
# FIG. 12 is a series of line graphs showing the non-sink dissolution of spray-dried amorphous Compound A produced at multiple scales. API (500 μg/mL) is present in gastric conditions (pH=2), which is 2× Diluted with FaSSIF at 30 minutes to increase the pH to 6.5.
# A 90-minute non-sink dissolution experiment was conducted in which a Compound A suspension was introduced into pH 2 HCl at a final concentration of 1 mg/mL, which was then periodically sampled and prepared for analysis via centrifugation. A shift to pH 6.5 SIF was carried out 30 minutes into the experiment.
# [5] = Stability of amorphous Compound A (spray-dried intermediate); assay type: physicochemical
# Description: The stability of amorphous Compound A was assessed at three stability conditions: 2-8° C.; 25° C./60% RH; and 40° C./75% RH for a period of 12 months.
# During stability testing, amorphous Compound A was stored in wire-tied low-density polyethylene bags placed in heat-induction sealed, high-density polyethylene (HDPE) bottles containing a desiccant canister, and capped with polypropylene-lined closures.
# [6] = Membrane flux experiment (donor/receiver compartments, SIF bile salts); settings: amorphous suspension as donor compartment contents
# Description: A membrane flux experiment was conducted in which a fixed amount of compound was introduced into the donor compartment at various concentrations of the SIF bile salts, and appearance of drug was monitored on the receiver side.
# [7] = Rat pharmacokinetic studies with solutions and spray-dried dispersions; settings: male, rat, in vivo, po, 150 mg/kg
# [8] = after 6 months of storage at 2-8° C.
# [9] = after 12 months at 25° C./60% RH
# [10] = after 12 months at 40° C./75% RH
structure (smiles),measurement,setting,value
N#Cc1ccc(O[C@H]2CC[C@H](NC(=O)c3ccc(N4CCC(C(=O)O)CC4)nn3)CC2)cc1Cl [Impurity 1],occurrence as metabolite,[1],"A process impurity resulting from over oxidation of Intermediate 2 in Step 2. This impurity is also a metabolite in male human, monkey, dog, rat, and mouse liver microsomes and hepatocytes"
"N#Cc1ccc(O[C@H]2CC[C@H](NC(=O)c3ccc(N4CCC(CO)CC4)nn3)CC2)cc1Cl [Intermediate 2, N-((1r,4r)-4-(3-chloro-4-cyanophenoxy)cyclohexyl)-6-(4-(hydroxymethyl)piperidin-1-yl)pyridazine-3-carboxamide]",occurrence as metabolite,[2],A process impurity in Intermediate 3 and can be formed as a by-product of the reductive amination in Step 3. This impurity is also a metabolite in female mouse liver microsomes
N#Cc1ccc(O[C@H]2CC[C@H](NC(=O)c3ccc(N4CCC(CN5CCN(c6cc7c(cc6F)C(=O)N(C6CCC(=O)NC6=O)C7=O)CC5)CC4)nn3)CC2)cc1Cl (some centres unmarked) [Spray-Dried Amorphous Compound A],Glass Transition Temperature,[3]; Temperature/RH 25/0 (° C./%),146 °C
same,Glass Transition Temperature,[3]; Temperature/RH 40/75 (° C./%),103 °C
same,"non-sink dissolution, amorphous vs crystalline (FIG. 11)",[4],Higher concentrations are achieved in the gastric phase of the experiment and sustained in the intestinal phase
same,purity,[5]; [8],95.7%
same,water (major impurity),[5]; [8],0.9%
same,purity,[5]; [9],97.7%
same,water (major impurity),[5]; [9],1.62%
same,purity,[5]; [10],98%
same,"water (major impurity), Karl Fischer titration",[5]; [10],2.16%
same,recrystallization of the amorphous form,"[5]; all three storage conditions, any time during the studies",no evidence of recrystallization
same,Flux (μg-min^−1-cm^−2),[6],0.15 μg-min^−1-cm^−2
same,AUC,[7],19400 ng·h/mL
